This is an account of results in ChEMBL document CHEMBL6120987, “Identification of inhibitors targeting the FLT3-ITD mutation through 4D-QSAR, in vitro, and in silico” (Eur J Med Chem, 2025).

The subject of one assay is MOLM-13. Put plainly: Antiproliferative activity against FLT3-dependent human MOLM-13 cells expressing FLT3 ITD mutant assessed as reduction in cell viability incubated for 72 hrs by luminescence based assay. In kind it is functional. The conditions noted are these: MOLM-13, 72 h.
In assay [1] the target is T1, Receptor-type tyrosine-protein kinase FLT3 (Homo sapiens, UniProt P36888, ITD). In words: Inhibition of FLT3-ITD mutant (unknown origin) using biotin-tagged TK substrate preincubated for 10 mins followed by substrate and ATP addition and measured after 40 mins by ADP-Glo Kinase Assay. (In general: In ADP-Glo the light output rises with the ADP produced.)
T1 sequence (P36888 whole entry, looked up, stated change not applied): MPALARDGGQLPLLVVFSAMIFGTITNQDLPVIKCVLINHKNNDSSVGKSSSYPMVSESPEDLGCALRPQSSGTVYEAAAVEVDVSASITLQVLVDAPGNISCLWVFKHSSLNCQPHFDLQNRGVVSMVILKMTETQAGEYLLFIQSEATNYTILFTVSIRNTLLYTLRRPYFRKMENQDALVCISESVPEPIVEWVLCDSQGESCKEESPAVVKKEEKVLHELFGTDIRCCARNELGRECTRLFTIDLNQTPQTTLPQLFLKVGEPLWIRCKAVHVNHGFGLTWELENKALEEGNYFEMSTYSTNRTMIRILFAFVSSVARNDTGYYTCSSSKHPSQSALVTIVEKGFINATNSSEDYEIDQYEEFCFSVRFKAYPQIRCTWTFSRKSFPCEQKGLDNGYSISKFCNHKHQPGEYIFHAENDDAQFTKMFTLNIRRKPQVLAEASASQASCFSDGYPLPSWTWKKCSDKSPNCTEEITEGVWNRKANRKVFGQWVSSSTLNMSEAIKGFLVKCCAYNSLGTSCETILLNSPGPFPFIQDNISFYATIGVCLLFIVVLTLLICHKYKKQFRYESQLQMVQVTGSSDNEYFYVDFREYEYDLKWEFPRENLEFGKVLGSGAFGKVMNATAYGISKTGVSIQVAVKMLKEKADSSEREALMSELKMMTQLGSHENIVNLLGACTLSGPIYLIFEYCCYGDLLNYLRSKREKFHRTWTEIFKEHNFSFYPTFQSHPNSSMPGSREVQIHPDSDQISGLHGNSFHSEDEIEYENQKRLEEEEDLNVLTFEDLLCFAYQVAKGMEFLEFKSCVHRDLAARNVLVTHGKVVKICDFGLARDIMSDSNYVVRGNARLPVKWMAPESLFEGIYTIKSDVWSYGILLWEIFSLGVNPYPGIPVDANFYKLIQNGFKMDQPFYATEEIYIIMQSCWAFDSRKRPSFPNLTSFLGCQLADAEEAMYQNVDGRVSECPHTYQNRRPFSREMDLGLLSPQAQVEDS
In assay [2] the target is T1, Receptor-type tyrosine-protein kinase FLT3. In words: Inhibition of FLT3-ITD mutant (unknown origin).

What is called IC50 is the concentration that gives 50% inhibition. Take `CCc1nc(C(N)=O)c(Nc2ccc(N3CCC(N4CCN(C(=O)C5c6ccccc6-c6ccccc65)CC4)CC3)c(OC)c2)nc1NC1CCOCC1`: the concentration for half-maximal inhibition (IC50) with MOLM-13 was found to be 154 nM.
Take `CCc1nc(C(N)=O)c(Nc2ccc(N3CCC(N4CCN(C(=O)C5CC6C=CC5C6)CC4)CC3)c(OC)c2)nc1NC1CCOCC1` (stereo not given): the figures for the 50% inhibitory concentration (IC50) (in the assay on MOLM-13; in assay [1]) were 54.6 nM and 4.83 nM, respectively.
In the case of `CCc1nc(C(N)=O)c(Nc2ccc(N3CCN(C(=O)C4c5ccccc5-c5ccccc54)CC3)c(OC)c2)nc1NC1CCOCC1`, in the assay on MOLM-13, the IC50 was determined as 142 nM.
For the compound `CC(C)(C)OC(=O)N1CCNCC1`, inhibition in assay [2] was half-maximal at 560 nM (IC50).
As to `CCCCCCCC/C=C\CCCCCCCC(=O)N1CCN(C2CCN(c3ccc(Nc4nc(NC5CCOCC5)c(CC)nc4C(N)=O)cc3OC)CC2)CC1`, the 50% inhibitory concentration (IC50) in the assay on MOLM-13 was greater than 10000 nM.
In the case of `CCc1nc(C(N)=O)c(Nc2ccc(N3CCN(C(=O)C45CC6CC(CC(C6)C4)C5)CC3)c(OC)c2)nc1NC1CCOCC1`, the IC50 in the assay on MOLM-13 stood at 1340 nM.
Turning to `CCc1nc(C(N)=O)c(Nc2ccc(N3CCC(NC(=O)C4c5ccccc5-c5ccccc54)CC3)c(OC)c2)nc1NC1CCOCC1`, the IC50 with MOLM-13 came to 147 nM.
Turning to `CCc1nc(C(N)=O)c(Nc2ccc(N3CCN(C(=O)C45C6C7C4C4C5C6C74C(=O)OC)CC3)c(OC)c2)nc1NC1CCOCC1` (stereo not given), the IC50 in the assay with MOLM-13 was 111 nM.
In assay [2], `COc1cc(N)ccc1N1CCC(N2CCN(C(=O)OC(C)(C)C)CC2)CC1` gave an IC50 of 511 nM.
As to `CCc1nc(C(N)=O)c(Nc2ccc(N3CCC(N4CCN(C)CC4)CC3)c(OC)c2)nc1NC1CCOCC1` [GILTERITINIB], the IC50 in the assay with MOLM-13 was 22.4 nM.
`CCc1nc(C(N)=O)c(Nc2ccc(N3CCC(NC(=O)C45C6C7C4C4C5C6C74C(=O)OC)CC3)c(OC)c2)nc1NC1CCOCC1` (stereo not given): the figures for the IC50 (in the assay on MOLM-13; in assay [1]) were 87.4 nM and 6.1 nM, respectively.
Compound `CCc1nc(C(N)=O)c(Nc2ccc(N3CCN(C(=O)OC(C)(C)C)CC3)c(OC)c2)nc1NC1CCOCC1` showed an IC50 in assay [2] of 370 nM.
Turning to `CCCCCCCC/C=C\CCCCCCCC(=O)N1CCN(c2ccc(Nc3nc(NC4CCOCC4)c(CC)nc3C(N)=O)cc2OC)CC1`, the half-inhibitory concentration (IC50) in the assay with MOLM-13 was 2440 nM.
For `CCc1nc(C(N)=O)c(Nc2ccc(N3CCC(N4CCN(C(=O)C56C7C8C5C5C6C7C85C(=O)OC)CC4)CC3)c(OC)c2)nc1NC1CCOCC1` (stereo not given), the half-maximal inhibitory concentration (IC50) in the assay with MOLM-13 was determined as 25.6 nM; in assay [1] it was 2.12 nM.
Consider `CCc1nc(C(N)=O)c(Nc2ccc(N3CCC(NC(=O)C45CC6CC(CC(C6)C4)C5)CC3)c(OC)c2)nc1NC1CCOCC1`, for which the IC50 in the assay on MOLM-13 is 992 nM.
Consider `CCc1nc(C(N)=O)c(Nc2ccc(N3CCC(NC(=O)C4CC5C=CC4C5)CC3)c(OC)c2)nc1NC1CCOCC1` (stereo not given), for which the values for the IC50 (in the assay with MOLM-13; in assay [1]) were 55 nM and 3.06 nM, respectively.
For the compound `CCCCCCCC/C=C\CCCCCCCC(=O)O` [OLEIC ACID], the half-maximal inhibitory concentration (IC50) in assay [2] is 511 nM.
In the case of `CCCCCCCC/C=C\CCCCCCCC(=O)NC1CCN(c2ccc(Nc3nc(NC4CCOCC4)c(CC)nc3C(N)=O)cc2OC)CC1`, the IC50 with MOLM-13 was 745 nM.
On to `CCc1nc(C(N)=O)c(Nc2ccc(N3CCC(N4CCN(C(=O)C56CC7CC(CC(C7)C5)C6)CC4)CC3)c(OC)c2)nc1NC1CCOCC1`, for which, in the assay with MOLM-13, the 50% inhibitory concentration (IC50) is 188 nM.
On to `CCc1nc(C(N)=O)c(Nc2ccc(N3CCN(C(=O)C4CC5C=CC4C5)CC3)c(OC)c2)nc1NC1CCOCC1` (stereo not given), for which the IC50 in the assay on MOLM-13 turned out to be 63.4 nM; in assay [1] it was 1.29 nM.
